Results on four compounds are retold here after publication PMC11887451, “Leveraging Immunogenic Cell Death to Enhance the Immune Response against Malignant Pleural Mesothelioma Tumors” (Journal of the American Chemical Society, 2025).

One data set concerns colon cancer cells. Details: method as in PMID 33237764. Conditions: immunocompetent mice; cited from earlier work.
Data set [1] relates to AB12 cells in BALB/c mice. The experiment in a line: In vivo vaccination model. The conditions noted are these: within the first 30 days after vaccination, n = 8. Details: species or system mouse.
Source text: Initially, AB12 cells underwent pretreatment with varying concentrations of Au(III) complexes, and the induced cell death and release of desired ICD biomarkers were monitored over time. Upon reaching a cell death rate of 65%–75%, BALB/c mice (n = 8) were subcutaneously injected in the left flank with a vaccine containing 3 × 10^5 of live/dying/dead cells, while the vehicle group received injections of PBS. Seven days postvaccine administration, the immunized mice were rechallenged by inoculating the same number of live AB12 cells (without any prior treatment) into the right flanks (Figure 5A). The progression of tumor growth on the right flanks was monitored using a caliper.
AB12 cells were seeded into Cellstar 24-well plates (Greiner Bio-One) at a density of 1.8 × 104
cells/ml (1 ml per well) and allowed to grow exponentially for 16 hours. Subsequently, the
medium was replaced with 1 ml of fresh medium containing compounds of interest at
predetermined concentrations (with a minimum of 4 wells per treatment condition). These
concentrations were selected to induce 65-75% cell death.
Subsequently, the culture
medium was aspirated, and the cells were washed twice with 1 mL of PBS. The cell
concentration was adjusted to 3 × 10^5 cells (including dead/dying/live cells) per 100 μL of PBS,
and the ratio of dead/live cells was assessed using the Invitrogen Countess 3 cell counter. In
the subsequent experiment, BALB/c mice (8 mice per group) were subcutaneously injected
with 0.1 mL of AB12 cells (3 × 10^5 cells/mL, including dead/dying/live cells) or the
corresponding vehicle (PBS) on the left flank. Tumor growth was monitored daily.
After 7 days, the mice were subcutaneously injected with
0.1 mL of AB12 cells (3 × 10^5 cells/mL, live cells) on the right flank. Regular measurements
of body weights and tumor sizes were taken. Mice that developed palpable tumors were
euthanized for further analysis.
The subject of data set [2] is patient-derived Meso92 cell line (biphasic MPM). The experiment in a line: MTT cytotoxicity assay, 72 h, Meso92. In kind it is cell-based, human. Conditions: exposure time 72 h. Background: Formazan colour is commonly taken as a measure of viable cells.
Source text: Cell lines and culture conditions
(§1) Mouse malignant mesothelioma cancer cell line AB12, human nonmalignant mesothelioma cancer cell line Met5A (mesothelial cells), mouse macrophage cell line J774 and human monocytic cell line THP-1 were obtained from American Type Culture Collection (ATCC) (Rockville, MD, USA). Human malignant mesothelioma cell lines VMC23 (epithelial), Meso82 (sarcomatous), Meso92 (biphasic), were kindly provided by Prof. Walter Berger (Medical University of Vienna). All cells except for J774 were cultured in RPMI and J774 cells were cultured in DMEM. Both types of media were supplemented with 10% FBS and 1% penicillin-streptomycin (10,000 U/mL). Cells were grown in tissue culture flasks (75 cm2 and 25 cm2, SPL Life Sciences Co., Ltd., Korea). All cell lines were grown at 37 °C in a humidified atmosphere of 95% air and 5% CO 2 and passaged when they reached 80–90% confluency. All Au stock solutions were prepared in 1% DMSO in the respected medium, ensuring that cell viability was not inhibited. The Au concentration in the stock solutions was confirmed through inductively coupled plasma optical emission spectrometry. The stock solution of pemetrexed (10 mM) was prepared in Milli -Q water.
Inhibition of c ell viability assay
(§2) The cytotoxicity of compounds was determined using an MTT colorimetric test. The cells were harvested from culture flasks by trypsinization and seeded into Cellstar 96 -well microculture plates (Greiner Bio -One) at the seeding density of 6000 cells per well (6 × 10^4 cells/mL). After
(§3) the cells were allowed to resume exponential growth for 16 h, they were exposed to drugs at
(§4) different concentrations in media for 72 h. The drugs were diluted in a complete medium at the desired concentration added to each well (100 μL) and serially diluted in other wells. After exposure for 72 h, the media was replaced with MTT in media (5 mg/mL, 100 μL/well) and
(§5) incubated for an additional 50 min. Subsequently, the medium was aspirated, and the purple formazan crystals formed in viable cells were dissolved in DMSO (100 μL/well). Optical densities were measured at 570 nm using a BioTek Synergy H1 microplate and MultiskanTM SkyHigh plate readers. The quantity of viable cells was expressed in terms of treated/control (T/C) values in comparison to untreated control cells, and 50% inhibitory concentrations (IC 50) were calculated from concentration-effect curves by interpolation. An evaluation was based on means from at least three independent experiments, each comprising three replicat es per
For data set [3], the system named is human nonmalignant mesothelioma cell line Met5A. The experiment in a line: MTT cytotoxicity assay, 72 h, Met5A. The class given is cell-based. Conditions: exposure time 72 h.
Source text: Cell lines and culture conditions
as §1
Inhibition of c ell viability assay
as §2, §3, §4, §5
Data set [4] concerns extracellular HMGB1 from AB12 cells. The experiment in a line: Western blot of extracellular HMGB1 in supernatants. In kind it is cell-based, mouse. Conditions: AB12, 5 × IC50, 240 min. The method, then:
cells were lysed with 200 µL of RIPA buffer, scraped, collected into 2 mL microtubes, sonicated for 45 sec on ice and centrifuged at 12000 × g for 20 min at 4 °C.
Protein concentration was measured by BCA Protein Assay Kit (PierceTM). 30 µg protein were reconstituted in loading buffer (5× Laemmli Buffer with 5% DTT) and heated at 95 °C for 10 min. Subsequently, the protein mixtures were resolved on 10% SDS-PAGE gels (BeyoGelTM)by electrophoresis ( 80 V for 20 min followed by 1 00 V for 60 min) and transferred onto a nitrocellulose membrane (250 mA for 2 h).
For Western Blot detection of extracellular HMGB1 protein, AB12 cells were seeded into Cellstar 6-well plates (Greiner Bio -One) at a density of 1 × 10^6 cells/well (2 ml per well). […]
After incubation with HRP-conjugated secondary antibodies (Catalogue Number: 7074P2, Cell Signaling Technology) in 2% BSA (w/v) in wash buffer at RT for 2 h, the membranes were washed with wash buffer 3 times for 5-10 min. Immune complexes were detected with SuperSignal™ West Atto Ultimate Sensitivity Substrate (A38554, Thermo Scientific) and analyzed using enhanced chemiluminescence imaging (Biorad). β-Actin was used as a loading control. […]
GA5010)). Luminescence was measured using Molecular Devices SpectraMax iD5 plate reader. […] The luminescence data was recorded for a total duration of 6 h following the treatment. […]
(Immunoblotting shows a protein as a band on a membrane.)

Data set [5] concerns patient-derived Meso84 cell line (sarcomatoid MPM). The experiment in a line: MTT cytotoxicity assay, 72 h, Meso84. Conditions: exposure time 72 h. The class given is cell-based, human.
Source text: (§6) Human malignant mesothelioma cancer cell lines JU77 and LO68 were obtained from Cell Bank Australia (Children's Medical Research Institute, Westmead, Australia). Mouse malignant mesothelioma cancer cell line AB12, human nonmalignant mesothelioma cancer cell line Met5A (mesothelial cells), mouse macrophage cell line J774 and human monocytic cell line THP-1 were obtained from American Type Culture Collection (ATCC) (Rockville, MD, USA). Human malignant mesothelioma cell lines VMC23 (epithelial), Meso82 (sarcomatous), Meso92 (biphasic), were kindly provided by Prof. Walter Berger (Medical University of Vienna). All cells except for J774 were cultured in RPMI and J774 cells were cultured in DMEM. Both types of media were supplemented with 10% FBS and 1% penicillin-streptomycin (10,000 U/mL). Cells were grown in tissue culture flasks (75 cm2 and 25 cm2, SPL Life Sciences Co., Ltd., Korea). All cell lines were grown at 37 °C in a humidified atmosphere of 95% air and 5% CO 2 and passaged when they reached 80–90% confluency. All Au stock solutions were prepared in 1% DMSO in the respected medium, ensuring that cell viability was not inhibited.
as §2, §3, §4, §5
Another data set deals with HMGB1 in AB12 cells. The experiment in a line: HMGB1 detection, confocal microscopy. In kind it is cell-based, mouse. The conditions noted are these: AB12, 5 × IC50. The method, then:
mL per dish). […] Afterwards, the […]
concentrations for 2 h at 37°C. […]
were stored in 1 mL of PBS. The confocal images were acquired by Laser Confocal Scanning […]
dishes were washed twice with 1 mL of PBS. The dishes were then incubated with HMGB1 […]
washed with 1 mL of PBS. Samples were stored in 1 mL of PBS. The confocal images were acquired by Laser Confocal Scanning Microscope (Leica SPE).
AB12 cells were seeded into the confocal dish (Biosharp) at a density of 3 × 10^5 cells/well (1 […]
mL per well). […] The cell culture […]
medium was aspirated and washed with PBS (2 × 1 ml). In a dimly lit setting, a solution of H2DCFDA (2',7'-dichlorodihydrofluorescein diacetate) in 1 × HBSS (10 μM, 1 mL) was added to each well and allowed to incubate for 15 min at 37 °C. Following this, the H 2DCFDA solution was aspirated and the wells were rinsed with HBSS (2 × 1 ml). Subsequently, the cells were treated with fresh colo urless cell culture medium containing compounds of interest at […]
Subsequently, the cells were treated with a culture medium containing 1 μM of Mitotracker TM Deep Red, 1 μM ER-Tracker™ Blue-White DPX and 1 μg/mL of Hoechst 33342 for 30 minutes. […] Images were captured using Laser Confocal Scanning Microscope (Leica SPE) and analyzed using the Microscope Software Platform LAS X Life Science. […]

Data set [6] has as its system human malignant mesothelioma cell line JU77. The experiment in a line: MTT cytotoxicity assay, 72 h, JU77. The conditions noted are these: exposure time 72 h. The class given is cell-based.
For data set [7], the system named is murine malignant mesothelioma cell line AB12. The experiment in a line: MTT cytotoxicity assay, 72 h, AB12. In kind it is cell-based, mouse. The conditions noted are these: exposure time 72 h.
Source text: as §6, §2, §3, §4, §5
Data set [8] has as its system human malignant mesothelioma cell line LO68. The experiment in a line: MTT cytotoxicity assay, 72 h, LO68. In kind it is cell-based. The conditions noted are these: exposure time 72 h.
Source text: as §6, §2, §3, §4, §5
The test system of data set [9] is patient-derived VMC23 cell line (epithelioid MPM). The experiment in a line: MTT cytotoxicity assay, 72 h, VMC23. In kind it is cell-based, human. The conditions noted are these: exposure time 72 h.
Source text: as §6, §2, §3, §4, §5
Data set [10] is described as follows: Aqueous stability by RP-HPLC in 1:1 DMSO:H2O over 72 h. The class given is physicochemical. Conditions: room temperature. The method, then: The aqueous stability of the Au(III)–DTC complexes was assessed by monitoring their RP-HPLC profiles in a 1:1 DMSO:H2O mixture at room temperature over a 3-day period (Supplementary Figures 112–146).
Determination of the purity of cyclometalated Au( III) complexes was performed using analytical HPLC on a Shimadzu Prominence System equipped with a DGU -20A3 Degasser, two LC-20AD Liquid Chromatography Pump, a SPD-20A UV/Vis Detector and a Shim Pack GVP-ODS 2.0 mm 18 column ([…], 120Å, 250 mm × 4.60 mm i.d.). The analysis was conducted at r.t. with a flow rate of 1.0 mL/min and detection at 254 and 280 nm. Mobile phase A was H2O + 0.1% Trifluoroacetic acid (TFA) while mobile phase B is ACN + 0.1% TFA. The gradient program parameters were as follows: mobil e phase B was increased from 30 to 95% over 30 min. 95% mobile phase B was maintained for 10 min, 95 to 30% over 5 min, and finally returned to 30% for 10 min for the next analysis. LogP values of the complexes were calculated based on the HPLC retention times derived from the calibration standard curve. The calibration standard curve was established using 2-butanone, phenylacetonitrile, anisole, ethyl benzoate, benzophenone, diphenyl ether and triphenylamine. To conduct an aqueous stability study, the HPLC profiles of the sample stock solutions were diluted to a 1:1 ratio of DMSO to […]
water. […]

For data set [11], the system named is calreticulin (CRT) in AB12 cells. Conditions: AB12, 5 × IC50, 120 min.
Procedure: emission was detected at 525/40 nm for FITC (CRT).
Confocal microscopy experiments
AB12 cells were seeded into confocal dishes (Biosharp) at a density of 3 × 10^5 cells/dish (1
mL per dish). The cells were allowed to resume exponential growth for 16 h. Afterwards, the
cells were incubated with a fresh medium containing compounds at their respective 5 × IC50
concentrations for 2 h at 37°C. After the treatment, the dishes were washed with 1 ml of PBS,
fixed in 4% paraformaldehyde in PBS at r. t. for 20 min and washed twice with 1 mL of PBS.
The dishes were then incubated with CRT antibody conjugated with Alexa Fluor 488 (1:200 in
the dishes were incubated with Wheat Germ Agglutinin conjugated with Alexa Fluor 633 dye
(W21404, Invitrogen) at r. t. in darkness for 30 min, washed with 1 mL of PBS, stained with
propidium iodide (PI) for 10 min at r. t. in darkness and washed with 1 mL of PBS. Samples
The subject of data set [12] is AB12 cells phagocytosed by J774 macrophages. The experiment in a line: Phagocytosis assay, flow cytometry. The class given is cell-based, mouse. Conditions: AB12 treated 100 min at 5 × IC50 (72 h), 16 h with J774 macrophages. On the procedure:
page 21: incubated for an additional 50 min. Subsequently, the medium was aspirated, and the purple formazan crystals formed in viable cells were dissolved in DMSO (100 μL/well). Optical densities were measured at 570 nm using a BioTek Synergy H1 microplate and MultiskanTM SkyHigh plate readers. The quantity of viable cells was expressed in terms of treated/control (T/C) values in comparison to untreated control cells, and 50% inhibitory concentrations (IC 50) were calculated from concentration-effect curves by interpolation. An evaluation was based on means from at least three independent experiments, each comprising three […] concentration level. For macrophage analyses, the acute monocytic leukemia -derived THP-1 cell line (ATCC) was used as a model. 1 × 104 THP-1 cells were seeded per well in 96-well plates in RPMI-1640 with 10% FCS and treated for 24 h with 75 nM phorbol 12-myristate 13-acetate (PMA, Sigma- Aldrich) to induce M0 macrophage differentiation. After the differentiation period, PMA was replaced by fresh culture medium to recover for 2h. Afterwards increasing concentrations of 1G, 5A, 5B and 5G were added for a 72-h continuous drug exposure assay. In parallel, the […] were allowed to attach for 24 h. Gold compounds were added to the cells as described for the THP-1 model above. After the incubation period of 72 h, cell viability was determined by an MTT-based assay (EU4U, Biomedica) following the instructions of the manufacturer. DMSO had not impact on the cell viability at the concentrations used. Flow cytometry experiments Phagocytosis assay […] with RPMI, centrifuged (300 × g, 5 min) and labelled with CellTracker Red CMTPX Dye (0.72 μM for 5 × 10^5 cells) at 37°C for 30 minutes in 1 ml of serum -free RPMI. Following S21 page 22: centrifugation of the cells (300 × g, 5 min), 5 ml of fresh RPMI was introduced, and the cells were seeded at a density of 5 x 10^5 cells per well into Cellstar 6-well plates (Greiner Bio-One) (1 ml per well). J774 macrophages (70-80% confluence in a T75 flask) were detached by scraping, centrifuged (300 × g, 5 min). The medium was substituted with 1 ml of DMEM containing CellTracker Green CMFDA (1 μM) and the J774 macrophages were stained at 37°C for 30 minutes. Following centrifugation of the J774 macrophages (300 × g, 5 min), 5 ml of fresh DMEM was introduced, and the macrophages were seeded into a 100 cm2 petri dish (SPL Life Sciences, Korea). After 24 h, the media in AB12 cells was replaced with 1 ml of fresh […] for 100 minutes. After removing the drug-containing media, the cells were trypsinized (0.5 ml), neutralized with 1 ml of RPMI, centrifuged (300 × g, 5 min) and counted. From each sample, […] cells into 6-well plates. AB12 cells and J774 macrophages were co-incubated for 16 h at 37°C and 5% CO2, detached by scraping, centrifuged (300 × g, 5 min), and the pellets were resuspended in PBS for immediate analysis using a CytoFLEX Flow Cytometer (Beckman Coulter, USA). The percentage of phagocytosis was determined by calculating the number of double-positive macrophages (Q2) over the total number of macrophages (Q2 + Q3). […] Annexin V/PI assay AB12 cells were seeded into Cellstar 6-well plates (Greiner Bio-One) at a density of 5 × 10^5 cells/well (1 ml per well). […] The medium was removed and cells were washed with PBS (2 × 1 mL). Afterwards the cells were […] S22
On the technique in general: Flow cytometry measures light scatter and fluorescence of single cells or particles in a stream.

`Cc1cc(C)c(-n2cc[n+](CCO)[c]2[Au-][c]2n(-c3c(C(C)C)cccc3C(C)C)c3c([n+]2-c2c(C(C)C)cccc2C(C)C)C(=O)c2ccccc2C3=O)c(C)c1` [Au1]: the “tumor-free time of vaccinated mice” value in the data set on colon cancer cells is recorded as “more than 42 days”.
For orientation: IC50 means the concentration at which inhibition is half-maximal. On to `CCCC[N+](CCCC)=C1[S][Au-]2([S]1)[c]1ccccc1Cc1cccc[n+]12.F[P-](F)(F)(F)(F)F` (stereo not shown) [2C], for which the “mice that developed tumors after vaccination” value in [1] was “≈ 50%”. In addition, the IC50 stood at 3.1 ± 0.7 µM in data set [2]; 1.4 µM in data set [3]; 3.9 ± 0.7 µM in data set [5]; 2.7 ± 0.4 µM in data set [6]; 2.7 ± 0.3 µM in data set [7]; 3 ± 0.3 µM in data set [8]. The compound further gave an IC50 in data set [9] of 2.4 ± 0.5 µM. The “extracellular HMGB1 in supernatant, Western Blot” value in data set [4] was “presence of extracellular HMGB1”. Also, the “HMGB1 expression, confocal microscopy” value in the data set with HMGB1 in AB12 cells is “confirmed by confocal microscopy”.
With `CCCC[N+](CCCC)=C1[S][Au-]2([S]1)[c]1ccccc1C(OC)c1cccc[n+]12.F[P-](F)(F)(F)(F)F` (racemic) [4C], the “mice that developed tumors after vaccination” value in [1] is reported as “≈ 50%”. Besides, the IC50 in [2] is 4.5 ± 0.8 µM; in data set [3], 3 ± 0.7 µM; in data set [5] it was 2.7 ± 0.8 µM; in data set [6], 1.6 ± 0.1 µM; in data set [7] it was 3.1 ± 0.4 µM; in data set [8] it was 3.1 ± 0.3 µM. This compound came in with an IC50 in data set [9] of 2.5 ± 0.2 µM. In addition, the “hydrolysis over the 72-h period” value in data set [10] was “less than 10%”. In addition, in [10] (24 h), the “minor RP-HPLC peak, share of the total area after 24 h” value was 2%. The “minor RP-HPLC peak, share of the total area after 72 h” value in data set [10] (72 h) is recorded as 8%. Also, the “CRT translocation, confocal microscopy” value in data set [11] is “translocation of CRT to the plasma membrane”. For the same compound, the phagocytosis rate in data set [12] was 37% ± 12%.
One may read the chromatographic logP as a lipophilicity value derived from retention on a column. A high value points to a more lipophilic compound. In turn, `COc1cccc2c1C(=O)c1c(O)c3c(c(O)c1C2=O)C[C@@](O)(C(=O)CO)C[C@@H]3O[C@H]1C[C@H](N)[C@H](O)[C@H](C)O1` [doxorubicin] had a chromatographic logP in the data set “physchem” of 0.68.
